Source: US11447445B2, “Diabetes and metabolic syndrome treatment with a novel dual modulator of soluble epoxide hydrolase and peroxisome proliferator-activated receptors” (priority 2015, dated 2022)
In brackets after ≈: the same amount, converted by molar mass. Read-outs that look alike come from different tables or passages of the source.

Tests used:
[1] = molecular target: T1, PPARα (Homo sapiens, UniProt Q07869); format: cell-based
T1 construct: expressed in transfected cells; host or cells: COS-7
Procedure: (§1) COS-7 cells (PPAR) were grown in DMEM high glucose, supplemented with 10% fetal calf serum (FCS), 1% sodium pyruvate (SP) and 1% penicillin/streptomycin (PS) at 37° C. and 5% CO2. Used plasmids for PPAR transactivation assay are shown under supporting informations.
(§2) The day before transfection, COS-7 cells were seeded in 96-well plates with a density of 30,000 cells per well. Transient transfection was carried out using Lipofectamine LTX reagent (Invitrogen, Carlsbad, Calif., USA) according to the manufacturer's protocol with pFR-Luc (Stratagene), pRL-SV40 (Promega) and the Ga14-fusion receptor plasmids (pFA-CMV-hPPAR-LBD) of the respective PPAR subtype. 5 h after transfection, medium was changed to DMEM without phenol red and 10% FCS, supplemented with 1% SP, 1% PS and 1% L-glutamine, now additionally containing 0.1% DMSO and the respective test compound or 0.1% DMSO alone as untreated control. Each concentration was tested in triplicate wells and each experiment was repeated independently at least three times. Following overnight incubation with the test compounds, cells were assayed for luciferase activity using Dual-Glo™ Luciferase Assay System (Promega) according to the manufacturer's protocol. Luminescence was measured with an Infinite m200 luminometer (Tecan Deutschland GmbH). Each concentration of the compounds was tested in triplicate wells. Normalization for transfection efficacy and cell growth was done by division of the firefly luciferase data by renilla luciferase data resulting in relative light units. Activation factors were obtained by dividing by DMSO control. […] All compounds were evaluated by comparison of the achieved maximum effect to that of the reference compound (pioglitazone for PPARγ, GW7647 for PPARa, and L165041 for PPARS each with 1 μM). Data are expressed as mean±SE; n≥3.
(§3) The Gal4-fusion receptor plasmids pFA-CMV-PPARa-LBD, pFA-CMV-PPARS-LBD and pFA-CMV-PPARγ-LBD containing the hinge region and ligand binding domain (LBD) for each of the PPAR subtypes, respectively, were constructed by integrating cDNA fragments obtained from PCR amplification of human monocytes into the SmaI/XbaI cleavage site of the pFA-CMV vector (Stratagene, La Jolla, Calif., USA) and have already been published. […] Frame and sequence of the fusion receptors were verified by sequencing. pFR-Luc (Stratagene) was used as reporter plasmid and pRL-SV40 (Promega) for normalization of transfection efficacy and cell growth.

[2] = molecular target: T2, recombinant human sEH (Homo sapiens, UniProt P34913); experiment: biochemical; conditions: for inhibition at 10 µM: read-out: sEH inhibition @10 μM (converted)
T2 sequence (P34913 1-555): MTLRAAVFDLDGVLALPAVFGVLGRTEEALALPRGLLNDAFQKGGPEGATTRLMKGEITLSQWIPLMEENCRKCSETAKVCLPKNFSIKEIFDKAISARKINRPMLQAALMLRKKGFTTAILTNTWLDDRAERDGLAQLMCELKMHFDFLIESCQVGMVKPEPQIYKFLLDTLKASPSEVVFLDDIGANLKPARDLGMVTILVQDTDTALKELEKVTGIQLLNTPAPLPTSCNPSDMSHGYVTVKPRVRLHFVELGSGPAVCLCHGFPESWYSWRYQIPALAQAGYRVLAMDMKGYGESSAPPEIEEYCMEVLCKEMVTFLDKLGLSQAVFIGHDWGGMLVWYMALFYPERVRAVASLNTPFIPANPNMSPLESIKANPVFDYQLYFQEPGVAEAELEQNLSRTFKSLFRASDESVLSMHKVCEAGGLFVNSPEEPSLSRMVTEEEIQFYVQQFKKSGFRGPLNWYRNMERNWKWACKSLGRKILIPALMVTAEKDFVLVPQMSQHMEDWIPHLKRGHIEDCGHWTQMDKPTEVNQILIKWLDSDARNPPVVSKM

[3] = after p.o. 30 mg/kg bw of 1b, all time points
Procedure: Blood was sampled 15 min, 30 min, 1 h, 2 h, 4 h and 8 h after test item application and only 8 h after vehicle application. Each drug treated mouse was sampled twice (0.25 and 0.5 h, 1 and 2 h, 4 and 8 h) via retro orbital puncture. Blood was collected in tubes containing lithium-heparin, stored on ice and subsequently centrifuged at 6000 rpm for 10 minutes at 4° C. (Heraeus biofuge fresco). The plasma was prepared within 45 min after sampling and kept at −20° C. until being assayed. For further kinetic and dynamic analysis the tissues (brain, liver, abdominal fat) were collected 30 min, 2h and 8 h post dose, after the second plasma sampling of each drug treated mouse. Tissue of the vehicle group was sampled only once, 8 h post dose. A volume of 40 μl acetonitrile containing the internal standard (300 ng/ml Diazepam) was added to 20 μl of mouse plasma sample, plasma calibration standard and plasma QC samples. Samples were vigorously shaken and centrifuged for 10 minutes at 6000 g and 20° C. The particle free supernatant was diluted 1:1 with water. An aliquot was transferred to 200 μl sampler vials and subsequently subjected to LC MS with an injection volume of 20 pl. The brain samples were homogenized in PBS (1+1, w/v) using the Precellys 24/Dual homogenizer. A volume of 20 μl of the brain homogenate was mixed (1+1 v/v/) with 20 μl mouse blank plasma. Then 80 μl acetonitrile containing the internal standard (300 ng/ml Diazepam) were added. Samples were vigorously shaken and centrifuged for 10 minutes at 6000 g and 20° C. The particle free supernatant was diluted 1:1 with water. An aliquot was transferred to 200 μl sampler vials and subsequently subjected to LC MS with an injection volume of 20 μl. Mass spectrometry was performed on a TSQ Quantum Discovery Max triple quadrupole mass spectrometer equipped with an electrospray (ESI) interface (Thermo Fisher Scientific, USA) connected to a PC running the standard software Xcalibur 2.0.7. […]

[4] = molecular target: T3, PPARδ (Homo sapiens, UniProt Q03181); experiment: PPAR transactivation assay in COS-7 cells (Gal4-hPPAR-LBD, luciferase); format: cell-based
T3 construct: expressed in transfected cells; host or cells: COS-7
Procedure: as §1, §2, §3

[5] = Water solubility approximation; format: physicochemical; conditions: PBS with 0.01% Polysorbate 20, aqueous with cosolvent or surfactant or cyclodextrin, kinetic from dmso stock; PBS pH 7.4, 0.01% Polysorbate 20, 1% DMSO; precipitation at 650 nm; read-out: w.s. (water solubility)
Procedure: PBS at pH 7.4 with 0.01% Polysorbate 20 (Tween) was combined with 1% of a DMSO solution of the inquired compound in a 96-well transparent flat bottom microtiter plate. Precipitation of the compound was measured at 650 nm with a Tecan Infinite 200 (Tecan Group Ltd, Mannedorf, Switzerland).

[6] = molecular target: T4, PPARγ (Homo sapiens, UniProt P37231); experiment: cell-based; format: cell-based; conditions: for EC50 PPARγ: i.a. = inactive; for activation at 10 µM: COS-7, read-out: PPARγ activation @10 μM, at 10 μM, compared to pioglitazone 1 μM
T4 construct: expressed in transfected cells; host or cells: COS-7
Procedure: as §1, §2, §3

[7] = read-out: sEH IC50 / inhibitory potency (unit inferred)

T4 sequence (P37231 238-503): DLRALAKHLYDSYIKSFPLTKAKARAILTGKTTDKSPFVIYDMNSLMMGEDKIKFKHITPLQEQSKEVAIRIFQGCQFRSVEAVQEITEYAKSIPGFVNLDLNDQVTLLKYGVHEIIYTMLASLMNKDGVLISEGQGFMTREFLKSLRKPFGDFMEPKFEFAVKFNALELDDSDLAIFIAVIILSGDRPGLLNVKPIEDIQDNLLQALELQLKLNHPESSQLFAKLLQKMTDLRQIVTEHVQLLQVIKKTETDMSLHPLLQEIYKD
T3 sequence (Q03181 211-439): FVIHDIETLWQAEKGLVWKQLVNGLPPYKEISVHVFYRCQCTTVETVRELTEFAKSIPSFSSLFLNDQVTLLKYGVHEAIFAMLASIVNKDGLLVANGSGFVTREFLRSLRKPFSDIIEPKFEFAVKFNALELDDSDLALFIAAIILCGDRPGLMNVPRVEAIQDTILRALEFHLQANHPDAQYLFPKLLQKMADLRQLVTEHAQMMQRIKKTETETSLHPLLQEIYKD
T1 sequence (Q07869 239-466): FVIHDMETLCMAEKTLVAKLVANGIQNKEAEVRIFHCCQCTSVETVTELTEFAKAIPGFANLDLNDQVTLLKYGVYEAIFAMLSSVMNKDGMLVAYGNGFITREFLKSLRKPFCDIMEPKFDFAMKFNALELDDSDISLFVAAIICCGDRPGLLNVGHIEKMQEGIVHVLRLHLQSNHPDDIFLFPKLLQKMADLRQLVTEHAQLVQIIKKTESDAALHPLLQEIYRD

Compound | EC50 PPARα ([1]; i.a. = inactive) | IC50 ([2]; read-out: IC50 sEH (converted)) [nM] | EC50 PPARδ ([4]; i.a. = inactive) | solubility [5] [µM] | also measured
CCOC(=O)C(CC)Cc1ccc(C(=O)NCc2ccccc2C(F)(F)F)cc1 (centres unmarked) [Compound 1b, Ethyl 2-ethyl 3-[4-(N-((2-trifluoromethyl)benzyl)benzamide)]propanoate] | i.a. | 44 ± 5 | i.a. |  | 1b in plasma [3]: not detected
CCOC(=O)C(CC)Cc1ccc(C(=O)NCc2ccccc2Br)cc1 (centres unmarked) [Compound 5b, Ethyl 2-ethyl 3-[4-(N-((2-bromo)benzyl)benzamide)]propanoate] | n.t. i.a. i.a. n.t. |  | n.t. i.a. i.a. n.t. | 25 (≈ 10.5 µg/mL) | EC50 PPARγ [6]: i.a.
CCC(Cc1ccc(C(=O)NCc2ccccc2OC(F)(F)F)cc1)C(=O)O (centres unmarked) [Compound 6c, 2-Ethyl 3-[4-(N-((2-trifluoromethoxy)benzyl)benzamide)]propionic acid] | n.t. i.a. i.a. n.t. |  | n.t. i.a. i.a. n.t. | 500 (≈ 198 µg/mL) | inhibition at 10 µM [2]: 23%
CCC(Cc1ccc(C(=O)NCc2ccc(OC)cc2)cc1)C(=O)O (centres unmarked) [Compound 10c, 2-Ethyl 3-[4-(N-((4-methoxy)benzyl)benzamide)]propionic acid] | n.t. i.a. i.a. n.t. |  | n.t. i.a. i.a. n.t. | 500 (≈ 171 µg/mL) | inhibition at 10 µM [2]: 34%
CCOC(=O)/C=C/c1ccc(C(=O)NCc2ccccc2C(F)(F)F)cc1 [Compound 16a, Ethyl (E)-4-[N-((2-trifluoromethyl)benzyl)benzamide]-cinnamate] | i.a. | 130 ± 5 | i.a. | 2.5 (≈ 0.943 µg/mL) | 
CCOC(=O)CCc1ccc(C(=O)NCc2ccccc2C(F)(F)F)cc1 [Compound 16b, Ethyl 3-[4-(N-((2-trifluoromethyl)benzyl)benzamide)]propanoate] | i.a. | 110 ± 3 | i.a. | 5 (≈ 1.9 µg/mL) | 
O=C(O)CCc1ccc(C(=O)NCc2ccccc2C(F)(F)F)cc1 [Compound 16c, 3-[4-(N-((2-trifluoromethyl)benzyl)benzamide)]propionic acid] | i.a. | 9000 ± 1700 | i.a. | 500 (≈ 176 µg/mL) | 
O=C(O)/C=C/c1ccc(C(=O)NCc2ccccc2C(F)(F)F)cc1 [Compound 16d, (E)-4-[N-((2-Trifluoromethyl)benzyl)benzamide]-cinnamic acid] | i.a. | 800 ± 50 | i.a. | 10 (≈ 3.49 µg/mL) | 
CCOC(=O)C(C)Cc1ccc(C(=O)NCc2ccccc2C(F)(F)F)cc1 (centres unmarked) [Compound 17b, Ethyl 2-methyl 3-[4-(N-((2-trifluoromethyl)benzyl)benzamide)]propanoate] | i.a. | 250 ± 40 | i.a. | 10 (≈ 3.93 µg/mL) | 
CC(Cc1ccc(C(=O)NCc2ccccc2C(F)(F)F)cc1)C(=O)O (centres unmarked) [Compound 17c, 2-Methyl 3-[4-(N-((2-trifluoromethyl)benzyl)benzamide)]propionic acid] | i.a. | 8000 ± 1600 | i.a. | 500 (≈ 183 µg/mL) | 
CCCC(Cc1ccc(C(=O)NCc2ccccc2C(F)(F)F)cc1)C(=O)OCC (centres unmarked) [Compound 18b, Ethyl 2-propyl 3-[4-(N-((2-trifluoromethyl)benzyl)benzamide)]propanoate] | i.a. | 170 ± 40 | i.a. | 5 (≈ 2.11 µg/mL) | 
CCCC(Cc1ccc(C(=O)NCc2ccccc2C(F)(F)F)cc1)C(=O)O (centres unmarked) [Compound 18c, 2-Propyl 3-[4-(N-((2-trifluoromethyl)benzyl)benzamide)]propionic acid] | i.a. | 5000 ± 1300 | i.a. | 500 (≈ 197 µg/mL) | 
CCOC(=O)C(Cc1ccc(C(=O)NCc2ccccc2C(F)(F)F)cc1)c1ccccc1 (centres unmarked) [Compound 19b, Ethyl 2-phenyl 3-[4-(N-((2-trifluoromethyl)benzyl)benzamide)]propanoate] | i.a. | 120 ± 13 | i.a. | 5 (≈ 2.28 µg/mL) | 
O=C(NCc1ccccc1C(F)(F)F)c1ccc(CC(C(=O)O)c2ccccc2)cc1 (centres unmarked) [Compound 19c, 2-Phenyl 3-[4-(N-((2-trifluoromethyl)benzyl)benzamide)]propionic acid] | i.a. | 2500 ± 500 | i.a. | 100 (≈ 42.7 µg/mL) | 
CON(C)C(=O)/C=C/c1ccc(C(=O)NCc2ccccc2C(F)(F)F)cc1 [Compound 20] | i.a. | 70 ± 20 | i.a. |  | EC50 PPARγ [6]: i.a.
CON(C)C(=O)C1CC1c1ccc(C(=O)NCc2ccccc2C(F)(F)F)cc1 (centres unmarked) [Compound 21, N-Methoxy-N-methyl 3-[4-(N-((2-trifluoromethyl)benzyl)benzamide)]cyclopropanecarboxamide] | i.a. | 80 ± 4 | i.a. |  | sEH IC50 / inhibitory potency (unit not given) [2]: double-digit nanomolar range; activation at 10 µM [6]: 30%
O=C(O)c1ccc(-c2ccc(C(=O)NCc3ccccc3C(F)(F)F)cc2)cc1 [Compound 25] |  | 170 |  | 5 (≈ 2 µg/mL) | EC50 PPARα [1]: i.a.; activation at 10 µM [6]: ~30%; EC50 PPARδ [4]: i.a.
O=C(O)c1cccc(-c2ccc(C(=O)NCc3ccccc3C(F)(F)F)cc2)c1 [Compound 26] |  |  |  |  | EC50 PPARα [1]: i.a.; IC50 [2, 7]: 1000 nM; activation at 10 µM [6]: ~30%; EC50 PPARδ [4]: i.a.
N#Cc1ccc(C(=O)NCc2ccccc2C(F)(F)F)cc1 [Compound 27, 4-Cyano-N-(2-(trifluoromethyl)benzyl)benzamide] | remained unaffected |  | remained unaffected |  | IC50 [2, 7]: 64 nM; EC50 PPARγ [6]: remained unaffected
O=C(NCc1ccccc1C(F)(F)F)c1ccc(-c2nnn[nH]2)cc1 [Compound 28, [N-(2-(Trifluoromethyl)benzyl)benzamid]-4-(1H-tetrazole)] | i.a. | 5000 | i.a. | 500 (≈ 174 µg/mL) | EC50 PPARγ [6]: i.a.
